Measurements from EPA's ToxRefDB 2.

Experiments:
[1] = test system: rat; settings: Subchronic oral toxicity in rodents, sprague dawley, Feed, dose end: 90 day, group: systemic, systemic / organ weight / adrenal gland / absolute + systemic / organ weight / adrenal gland / relative to body weight + systemic / organ …
[2] = test system: mouse; settings: Subchronic oral toxicity in rodents, cd1, Feed, dose end: 90 day, group: systemic
[3] = test system: dog; settings: Chronic toxicity, beagle, Oral, Capsule, dose end: 52 week, group: systemic
[4] = test system: dog; settings: Subchronic oral toxicity in nonrodent, beagle, Feed, dose end: 13 week, group: systemic
[5] = test system: rat; settings: Sub-acute dermal toxicity, fischer, Topical, dose end: 21 day, group: systemic, systemic / in life observation / clinical signs / desquamation + systemic / pathology microscopic / skin / hyperkeratosis + systemic / …
[6] = test system: rat; settings: Multigenerational reproductive toxicity study, Crl: CD BR, Oral, Feed, dose end: 2 generation
[7] = test system: rat; settings: Subchronic oral toxicity in rodents, sprague dawley, Feed, dose end: 13 week, group: systemic
[8] = test system: rat; settings: Chronic toxicity, sprague dawley, Oral, Feed, dose end: 104 week, group: systemic
[9] = test system: dog; settings: Chronic toxicity, beagle, Oral, Feed, dose end: 52 week, group: systemic
[10] = test system: mouse; settings: Carcinogenicity, cd1, Oral, Feed, dose end: 24 month, group: systemic
[11] = test system: dog; settings: Subchronic oral toxicity in nonrodent, beagle, Capsule, dose end: 98 day, group: systemic
[12] = test system: rat; settings: Combined chronic toxicity/carcinogenicity; sprague dawley; Oral; Feed; dose end: 104 week; group: systemic; systemic / pathology microscopic / liver / hypertrophy + systemic / pathology microscopic / stomach / hyperkeratosis + systemic / pathology …
[13] = test system: rat; settings: Peri- and post-natal toxicity study (Segment III); wistar; Injection; Intravenous; dose end: 21 PND; group: parental; systemic / in life observation / body weight / body weight gain + systemic / in life observation / clinical signs / motor activity + …
[14] = test system: rat; settings: Prenatal developmental toxicity study; wistar; Injection; Intravenous; dose end: 18 GD; group: maternal; systemic / in life observation / body weight / body weight gain + systemic / in life observation / clinical signs / motor activity + …
[15] = test system: dog; settings: Subchronic oral toxicity in nonrodent; beagle; Injection; Intravenous; dose end: 3 month; group: systemic; systemic / hematology / erythrocyte (rbc) count differential / erythrocyte (rbc) + systemic / hematology / hematocrit (hct) / hematocrit (…
[16] = test system: rat; settings: Subchronic oral toxicity in rodents; wistar; Injection; Intravenous; dose end: 3 month; group: systemic; systemic / clinical chemistry / urea nitrogen / urea + systemic / hematology / erythrocyte (rbc) count differential / erythrocyte (rbc) + …
[17] = test system: rat; settings: Carcinogenicity, wistar, Oral, Gavage/Intubation, dose end: 24 month, group: systemic
[18] = test system: mouse; settings: Subchronic oral toxicity in rodents, other, Gavage/Intubation, dose end: 90 day, group: systemic
[19] = test system: rat; settings: Subchronic oral toxicity in rodents, wistar, Gavage/Intubation, dose end: 90 day, group: systemic
[20] = systemic / pathology gross / urinary bladder / lesion(s) (nos)
[21] = systemic / clinical chemistry / alanine aminotransferase (alt/sgpt) / alanine aminotransferase (alt/sgpt)
[22] = systemic / in life observation / body weight / body weight gain
[23] = systemic / in life observation / body weight / body weight gain + systemic / clinical chemistry / alanine aminotransferase (alt/sgpt) / …
[24] = systemic / pathology microscopic / liver / inflammation + systemic / clinical chemistry / alanine aminotransferase (alt/sgpt) / alanine …
[25] = group: offspring, systemic / pathology gross / stomach / irregular surface + systemic / pathology gross / stomach / thickened + systemic / pathology …
[26] = group: parental, systemic / organ weight / kidney / relative to body weight + systemic / pathology gross / stomach / irregular surface + systemic / pathology…
[27] = systemic / pathology microscopic / kidney / inclusion body intracytoplasmic
[28] = systemic / clinical chemistry / potassium / potassium
[29] = systemic / clinical chemistry / potassium / potassium + systemic / clinical chemistry / albumin / albumin + systemic / clinical chemistry / …
[30] = systemic / pathology gross / stomach / adhesions + systemic / pathology gross / stomach / thickened + systemic / pathology microscopic / …
[31] = systemic / pathology microscopic / stomach / congestion + systemic / pathology microscopic / stomach / mineralization + systemic / clinical …
[32] = systemic / organ weight / liver / relative to body weight
[33] = systemic / in life observation / clinical signs / salivation + systemic / organ weight / liver / relative to body weight + systemic / in …
[34] = systemic / pathology microscopic / stomach / neoplasm nos + systemic / hematology / hematocrit (hct) / hematocrit (hct) + systemic / …
[35] = systemic / organ weight / liver / relative to body weight + systemic / organ weight / kidney / absolute
[36] = systemic / clinical chemistry / urea nitrogen / urea + systemic / hematology / blood clotting / blood clotting - clotting time + systemic / …

## N#Cc1c(Cl)c(Cl)c(Cl)c(C#N)c1Cl [Chlorothalonil]
[1]
  LEL: 250 mg/kg/day
  LOAEL: 750 mg/kg/day
  NEL: < 250 mg/kg/day
  NOAEL: 250 mg/kg/day
[2]; [20]
  LEL: 1.12 mg/kg/day
  NEL: < 1.12 mg/kg/day
[2]; systemic / pathology microscopic / stomach / hyperkeratosis + systemic / pathology microscopic / stomach / hyperplasia + systemic / clinical…
  NOAEL: 2.25 mg/kg/day
[2]; systemic / pathology microscopic / stomach / hyperkeratosis + systemic / pathology microscopic / stomach / hyperplasia + systemic / …
  LOAEL: 7.5 mg/kg/day
[3]; [21]
  LEL: 15 mg/kg/day
  NEL: < 15 mg/kg/day
[3]; [22]
  LOAEL: 500 mg/kg/day
[3]; [23]
  NOAEL: 150 mg/kg/day
[4]; systemic / pathology microscopic / liver / infiltration cellular + systemic / pathology microscopic / liver / inflammation
  LOAEL: 56.5 mg/kg/day
[4]; systemic / pathology microscopic / liver / infiltration cellular + systemic / pathology microscopic / liver / inflammation + systemic / …
  NOAEL: 5.6 mg/kg/day
[4]; [24]
  LEL: 5.6 mg/kg/day
  NEL: < 5.6 mg/kg/day
[5]
  LEL: 60 mg/kg/day
  LOAEL: 60 mg/kg/day
  NEL: < 60 mg/kg/day
  NOAEL: < 60 mg/kg/day
[6]; [25]
  LEL: 32.9 mg/kg/day
  LOAEL: 32.9 mg/kg/day
  NEL: < 32.9 mg/kg/day
  NOAEL: < 32.9 mg/kg/day
[6]; [26]
  LEL: 28.6 mg/kg/day
  LOAEL: 28.6 mg/kg/day
  NEL: < 28.6 mg/kg/day
  NOAEL: < 28.6 mg/kg/day
[7]; [27]
  LEL: 1.5 mg/kg/day
  LOAEL: 3 mg/kg/day
  NEL: < 1.5 mg/kg/day
[7]; systemic / pathology microscopic / kidney / inclusion body intracytoplasmic + systemic / pathology microscopic / kidney / hyperplasia
  NOAEL: 1.5 mg/kg/day
[8]; [28]
  LEL: 0.5 mg/kg/day
  NEL: < 0.5 mg/kg/day
[8]; [29]
  LOAEL: 10 mg/kg/day
  NOAEL: 3 mg/kg/day
[9]; [30]
  LOAEL: 43.3 mg/kg/day
  NOAEL: 5.1 mg/kg/day
[9]; [31]
  LEL: 5.1 mg/kg/day
  NEL: < 5.1 mg/kg/day
[10]; systemic / in life observation / body weight / body weight
  LOAEL: 225 mg/kg/day
[10]; systemic / in life observation / body weight / body weight + systemic / hematology / erythrocyte (rbc) count differential / erythrocyte (rbc…
  NOAEL: 112 mg/kg/day
[10]; [32]
  LEL: 56.2 mg/kg/day
  NEL: < 56.2 mg/kg/day
[11]; [21]
  LEL: 15 mg/kg/day
  NEL: < 15 mg/kg/day
[11]; [22]
  LOAEL: 150 mg/kg/day
[11]; [23]
  NOAEL: 15 mg/kg/day
[12]
  LEL: 0.7 mg/kg/day
  LOAEL: 0.9 mg/kg/day
  NEL: < 0.7 mg/kg/day
  NOAEL: < 0.9 mg/kg/day

## CC(C)c1ccc(C(=O)N=C(N)N)cc1S(C)(=O)=O.CS(=O)(=O)O [Cariporide mesylate]
[13]
  LEL: 125 mg/kg/day
  LOAEL: > 125 mg/kg/day
  NEL: 5 mg/kg/day
  NOAEL: ≥ 125 mg/kg/day
[14]
  LEL: 125 mg/kg/day
  LOAEL: > 125 mg/kg/day
  NEL: 25 mg/kg/day
  NOAEL: ≥ 125 mg/kg/day
[15]
  LEL: 1.25 mg/kg/day
  LOAEL: > 20 mg/kg/day
  NEL: < 1.25 mg/kg/day
  NOAEL: ≥ 20 mg/kg/day
[16]
  LEL: 125 mg/kg/day
  LOAEL: 125 mg/kg/day
  NEL: 25 mg/kg/day
  NOAEL: 25 mg/kg/day
[17]; [33]
  LEL: 12 mg/kg/day
  NEL: < 12 mg/kg/day
[17]; [34]
  LOAEL: > 400 mg/kg/day
  NOAEL: ≥ 400 mg/kg/day
[18]; systemic / organ weight / liver / relative to body weight + systemic / in life observation / clinical signs / abnormal gait + systemic / in …
  NOAEL: 250 mg/kg/day
[18]; [35]
  LEL: 250 mg/kg/day
  LOAEL: 500 mg/kg/day
  NEL: < 250 mg/kg/day
[19]; [36]
  LOAEL: 100 mg/kg/day
  NEL: 5 mg/kg/day
  NOAEL: 22 mg/kg/day
[19]; [32]
  LEL: 22 mg/kg/day
